Here are results for two molecules from US20100099642A1, “TGF-BETA STIMULANT AND FURTHER AGENT TO REDUCE SIDE EFFECTS” (TCP Innovations Limited, priority 2007, published 2010).

One experiment relates to tgfb3 mRNA. In words: tgfb3 mRNA level by quantitative PCR in human aortic vascular smooth muscle cells. The following applies: 24 hrs, normalised to TBP, vs vehicle. Type of experiment: cell-based. As to the method: (1995) Cardiovasc. Res. 29:848-55). […] The cells were then incubated for either 24 hrs or 72 hrs depending on the experiment. All treatment conditions were established in triplicate. The level of mRNA for tgfb1, tgfb2 and tgfb3 were estimated by quantitative PCR. The media was removed and RNA was carefully prepared using the Ambion RNAqueous4PCR kit (Ambion#1914) in accordance with the manufacturer's instructions. The purity of the RNA and the quantity was assessed spectrophotometrically. […] This analysis results in both a gel-like image as well as electrophoretic data. Indications of RNA degradation are: (a) decreasing ratio of ribosomal bands (b) additional peaks bellow the ribosomal bands (c) Decrease in overall RNA signal (d) shift towards shorter fragments. […] Next, the RNA was converted to cDNA using the ABI High-Capacity cDNA Archive Kit, in accordance with manufacturer's instructions. The qPCR assay was then set up as follow: all cDNA samples were diluted to 180 μl total volume using Molecular grade water. Samples were vortexed to ensure thorough mixing. cDNA was aliquoted into ABI 384 well plates using a multi-channel pipette, 4.5 μl of sample into each well. Samples were assayed in triplicate (that is, nine determinations in total were made for each condition, being three separate assays on each of three replicate culture wells). The assay mix and Universal Master Mix were prepared and aliquoted across the 384 well plates 5.5 μl in each well, using a single channel pipette. The final composition of each reaction (10 μl) being: Primer/Probe assay mix (×20)=0.5 μl; Universal Master Mix=5 μl; cDNA=4.5 μl. The plates were then heat sealed using Abgene clear seal strong plastic heat seals, and then cycled and scanned using the […] under the following conditions: 95° C. for 10 minutes to activate the AmpliTaq GOLD, then 40 cycles of: 95° C. for 15 Sec (Denaturation), 60° C. for 60 […]). […] Quantitative PCR was performed using several primer/probe sets. […] We used both commercially available primer/probe sets (ABI Taqman pre-validated assays), using both available sets in the ABI database for tgfb1 and tgfb2, as well as the single available set for tgfb3. In addition, we used our own manual design probe/primer set for each of tgfb1, tgfb2 and tgfb3. […] In all quantitative PCR experiments, several additional controls were included: firstly, a control for each sample is run with no reverse transcription to ensure the mRNA sample is not contaminated with genomic DNA (although the manual design probe/primer sets were all selected to cross an exon/exon boundary, ensuring no detectable amplicon is produced from genomic DNA templates). Secondly, a control reaction is run using serial 2-fold dilutions of a standard cDNA preparation (prepared from commercially available IMAGE clones). […] Failure of either control led to the repeat of the entire experiment.

The subject of the next experiment is apoE-deficient mice. The experiment in a line: vascular lipid lesion formation at the aortic root (Oil Red O) in apoE-deficient mice. The following applies: 12 weeks in chow, TMX 1 mg/kg/day, Aspirin 30 mg/kg/day, mean ± SD, n = 8. Type of experiment: in vivo, mouse. An excerpt:
Adult male apoE-deficient mice, back-crossed onto a C57B16 background for at least five generations, were randomised into groups of eight animals at 12 weeks of age, such that each group had similar average body weight. […] Note that the mice receiving both compounds received food pellets into which a homogenous mixture of the ingredients had been compounded, and not a mixture of food pellets each containing one of the two active ingredients. The amount of food eaten and the body weight of each mouse was monitored daily for the first week, and once per week thereafter. After 12 weeks of treatment, the mice were sacrificed by CO2 asphyxiation, and heart & lung blocks were excised, embedded in Cryo-M-bed (Bright Instruments, UK) without fixation and snap frozen in liquid nitrogen.
Sections were then prepared from the aortic root according to the Paigen Strategy (a defined sequence of cutting sections which allow reproducible comparison between animals; see for example Grainger et al. (1995) Nature Med. 1:1067-72 and the references therein). 4 μm crysosections were cut using a motordriven cryotome (Bright Instruments) and collected onto poly-L-lysine coated glass microscope slides, then fixed in ice-cold acetone for 90 secs, allowed to air dry and stored at −20° C. until analysed.
The extent of vascular lipid lesion formation was assessed by Oil Red O staining, with a Fast Green counterstain, a standard histological procedure well known in the art. Briefly, five sections (selected according to the Paigen strategy) from each animal were passed through graded alcohol solutions, then stained in Oil Red O for 12 minutes, washed several times and then counterstained by dipping in Fast Green for 5-10 secs, and then dip washed in several changes of clean water. After air drying, an appropriate mountant was applied (simple glycerol-based moutants are most appropriate for this task), followed by a coverslip using acrylic varnish surrounding the coverslip to hold it in place. Slides were then analysed using a simple inverted microscope (no phase contrast; 10× objective; Olympus AX series), fitted with a digital camera to capture images of the entire aortic wall. The images were subsequently processed, blind to the treatment status of the animal, using Openlab image analysis software (Improvision, UK) running on an Apple Macintosh computer. […]
Mice were sacrificed and heart & lung blocks prepared and processed exactly as described in Example 2. […] The extent of lipid lesion formation was assessed by Oil Red O staining with Fast Green counterstain, exactly as in example 2.

The test system of another experiment is DBA/1 mice. The experiment in a line: collagen-induced arthritis, footpad thickness in DBA/1 mice. Type of experiment: in vivo, mouse. The following applies: Tamoxifen 1 mg/kg/day p.o, aspirin 30 mg/kg/day p.o, from the booster injection onwards. The procedure: Collagen-induced arthritis was induced in adult male DBA/1 mice as previously described (Courtenay et al. (1980) Nature 283:666-8). Adult (12 week old) male DBA/1 mice were divided into groups of six animals. Mice received 100 μg per mouse of bovine type II collagen (Sigma) in Freunds Complete Adjuvant (FCA) by the subcutaneous route, while a control group received an identical injection of type I collagen in FCA. Twenty-one days later, all groups of mice received an intraperitoneal booster injection containing 100 μg per mouse of the same collagen type as previously, but in the absence of adjuvant. […] Foodpad thickness was determined each day using a digital caliper EC1507 (Moore & Wright) accurate to 0.01 mm. The thickness of each footpad was determined three times on each day by a single operator blind to the treatment condition of the mouse, and the footpad thickness of each mouse on each day was reported as the mean for the three measurements for all four paws. Errors represent the standard error of the mean among the six animals in each group.

With `CC(=O)Oc1ccccc1C(=O)O` [Aspirin, acetylsalicylic acid], the “Level of tgfb3 mRNA, estimated by qPCR” value in the experiment with tgfb3 mRNA (10 μM A) was 1.09 ± 0.08 fold-change; with tgfb3 mRNA (33 μM A), 1.06 ± 0.13 fold-change; in the experiment with tgfb3 mRNA (100 μM A) it was 0.94 ± 0.09 fold-change. Also, the Total intimal area in the experiment on apoE-deficient mice is reported as 65,209 ± 6,712 μm2.
For `CC/C(=C(\c1ccccc1)c1ccc(OCCN(C)C)cc1)c1ccccc1` [Tamoxifen], in the experiment with tgfb3 mRNA (3.3 μM T), the “Level of tgfb3 mRNA, estimated by qPCR” value is 0.92 ± 0.16 fold-change. Besides, the “Level of tgfb3 mRNA, estimated by qPCR” value with tgfb3 mRNA (10 μM T) is recorded as 1.19 ± 0.21 fold-change. Further, in the experiment on tgfb3 mRNA (33 μM T), the “Level of tgfb3 mRNA, estimated by qPCR” value was 1.31 ± 0.11 fold-change. For the same molecule, in the experiment on apoE-deficient mice, the “Intimal lipid lesion area” value is 9,393 ± 2,221 μm2, the Lipid lesion area is given as 10,794 ± 2,820 μm2 and the Total intimal area was 64,428 ± 4,294 μm2. In addition, the “reduction of maximal collagen-II induced footpad swelling” value in the experiment on DBA/1 mice came out at 36%.
